Measurements from patent publication US8969360B2, “Compounds useful as inhibitors of ATR kinase” (Vertex Pharmaceuticals Incorporated, priority 2013, dated 2015).

Tests used:
[1] = target: T1, ATR kinase (Homo sapiens, UniProt Q13535); assay: ATR Inhibition Assay (radioactive-phosphate incorporation); assay type: biochemical; settings: Ki(app); 5 nM full-length ATR, 10 μM ATP, 800 μM target peptide, 25° C.
T1 construct: Assays were carried out at 25° C. in the presence of 5 nM full-length ATR
Experimental: Compounds were screened for their ability to inhibit ATR kinase using a radioactive-phosphate incorporation assay. Assays were carried out in a mixture of 50 mM Tris/HCl (pH 7.5), 10 mM MgCl2 and 1 mM DTT. Final substrate concentrations were 10 μM [γ-33P]ATP (3 mCi 33P ATP/mmol ATP, Perkin Elmer) and 800 μM target peptide (ASELPASQPQPFSAKKK (SEQ. ID NO: 1)).
Assays were carried out at 25° C. in the presence of 5 nM full-length ATR. An assay stock buffer solution was prepared containing all of the reagents listed above, with the exception of ATP and the test compound of interest. 13.5 μL of the stock solution was placed in a 96 well plate followed by addition of 2 μL of DMSO stock containing serial dilutions of the test compound (typically starting from a final concentration of 15 μM with 3-fold serial dilutions) in duplicate (final DMSO concentration 7%). The plate was pre-incubated for 10 minutes at 25° C. and the reaction initiated by addition of 15 μL [γ-33P]ATP (final concentration 10 μM).
The reaction was stopped after […] by the addition of 30 μL, 0.1M phosphoric acid containing 2 mM ATP. A multiscreen phosphocellulose filter 96-well plate (Millipore, Cat no. MAPHN0B50) was pretreated with 100 μL 0.2M phosphoric acid prior to the addition of 45 μL of the stopped assay mixture. The plate was washed with 5×200 μL 0.2M phosphoric acid. After drying, 100 μL Optiphase ‘SuperMix’ liquid scintillation cocktail (Perkin Elmer) was added to the well prior to scintillation counting (1450 Microbeta Liquid Scintillation Counter, Wallac).
After removing mean background values for all of the data points, Ki(app) data were calculated from non-linear regression analysis of the initial rate data using the Prism software package (GraphPad Prism version 3.0cx for Macintosh, GraphPad Software, San Diego Calif., USA).
Compounds with a Ki value of <0.01 μM are marked with “+++.” Compounds with a Ki value >0.01 μM but <1 μM are marked with “++.” Compounds with a Ki value >1 μM but <5 μM are marked with “+.”

[2] = system: HCT116 colorectal cancer cells; assay: Cisplatin Sensitization Assay (96 h cell viability MTS); assay type: cell-based; settings: concentration of compound required to reduce the IC50 of Cisplatin alone by at least 3-fold; HCT116, 96 h MTS
Experimental: Compounds can be screened for their ability to sensitize HCT116 colorectal cancer cells to Cisplatin using a 96 h cell viability (MTS) assay. […] Compounds and Cisplatin are then both added simultaneously to the cell media in 2-fold serial dilutions from a top final concentration of 10 μM as a full matrix of concentrations in a final cell volume of 200 μl, and the cells are then incubated at 37° C. in 5% CO2. After 96 h, 40 μl of MTS reagent (Promega G358a) is added to each well and the cells are incubated for 1 h at 37° C. in 5% CO2. Finally, absorbance is measured at 490 nm using a SpectraMax Plus 384 reader (Molecular Devices) and the concentration of compound required to reduce the IC50 of Cisplatin alone by at least 3-fold (to 1 decimal place) can be reported.
Compounds with a Cisplatin sensitization value of <0.02 μM are marked with “+++.” Compounds with a Cisplatin sensitization value>0.02 μM but <0.2 μM are marked with “++.” Compounds with a Cisplatin sensitization value >0.2 μM but <5 μM are marked with “+.”

T1 sequence (Q13535 whole entry): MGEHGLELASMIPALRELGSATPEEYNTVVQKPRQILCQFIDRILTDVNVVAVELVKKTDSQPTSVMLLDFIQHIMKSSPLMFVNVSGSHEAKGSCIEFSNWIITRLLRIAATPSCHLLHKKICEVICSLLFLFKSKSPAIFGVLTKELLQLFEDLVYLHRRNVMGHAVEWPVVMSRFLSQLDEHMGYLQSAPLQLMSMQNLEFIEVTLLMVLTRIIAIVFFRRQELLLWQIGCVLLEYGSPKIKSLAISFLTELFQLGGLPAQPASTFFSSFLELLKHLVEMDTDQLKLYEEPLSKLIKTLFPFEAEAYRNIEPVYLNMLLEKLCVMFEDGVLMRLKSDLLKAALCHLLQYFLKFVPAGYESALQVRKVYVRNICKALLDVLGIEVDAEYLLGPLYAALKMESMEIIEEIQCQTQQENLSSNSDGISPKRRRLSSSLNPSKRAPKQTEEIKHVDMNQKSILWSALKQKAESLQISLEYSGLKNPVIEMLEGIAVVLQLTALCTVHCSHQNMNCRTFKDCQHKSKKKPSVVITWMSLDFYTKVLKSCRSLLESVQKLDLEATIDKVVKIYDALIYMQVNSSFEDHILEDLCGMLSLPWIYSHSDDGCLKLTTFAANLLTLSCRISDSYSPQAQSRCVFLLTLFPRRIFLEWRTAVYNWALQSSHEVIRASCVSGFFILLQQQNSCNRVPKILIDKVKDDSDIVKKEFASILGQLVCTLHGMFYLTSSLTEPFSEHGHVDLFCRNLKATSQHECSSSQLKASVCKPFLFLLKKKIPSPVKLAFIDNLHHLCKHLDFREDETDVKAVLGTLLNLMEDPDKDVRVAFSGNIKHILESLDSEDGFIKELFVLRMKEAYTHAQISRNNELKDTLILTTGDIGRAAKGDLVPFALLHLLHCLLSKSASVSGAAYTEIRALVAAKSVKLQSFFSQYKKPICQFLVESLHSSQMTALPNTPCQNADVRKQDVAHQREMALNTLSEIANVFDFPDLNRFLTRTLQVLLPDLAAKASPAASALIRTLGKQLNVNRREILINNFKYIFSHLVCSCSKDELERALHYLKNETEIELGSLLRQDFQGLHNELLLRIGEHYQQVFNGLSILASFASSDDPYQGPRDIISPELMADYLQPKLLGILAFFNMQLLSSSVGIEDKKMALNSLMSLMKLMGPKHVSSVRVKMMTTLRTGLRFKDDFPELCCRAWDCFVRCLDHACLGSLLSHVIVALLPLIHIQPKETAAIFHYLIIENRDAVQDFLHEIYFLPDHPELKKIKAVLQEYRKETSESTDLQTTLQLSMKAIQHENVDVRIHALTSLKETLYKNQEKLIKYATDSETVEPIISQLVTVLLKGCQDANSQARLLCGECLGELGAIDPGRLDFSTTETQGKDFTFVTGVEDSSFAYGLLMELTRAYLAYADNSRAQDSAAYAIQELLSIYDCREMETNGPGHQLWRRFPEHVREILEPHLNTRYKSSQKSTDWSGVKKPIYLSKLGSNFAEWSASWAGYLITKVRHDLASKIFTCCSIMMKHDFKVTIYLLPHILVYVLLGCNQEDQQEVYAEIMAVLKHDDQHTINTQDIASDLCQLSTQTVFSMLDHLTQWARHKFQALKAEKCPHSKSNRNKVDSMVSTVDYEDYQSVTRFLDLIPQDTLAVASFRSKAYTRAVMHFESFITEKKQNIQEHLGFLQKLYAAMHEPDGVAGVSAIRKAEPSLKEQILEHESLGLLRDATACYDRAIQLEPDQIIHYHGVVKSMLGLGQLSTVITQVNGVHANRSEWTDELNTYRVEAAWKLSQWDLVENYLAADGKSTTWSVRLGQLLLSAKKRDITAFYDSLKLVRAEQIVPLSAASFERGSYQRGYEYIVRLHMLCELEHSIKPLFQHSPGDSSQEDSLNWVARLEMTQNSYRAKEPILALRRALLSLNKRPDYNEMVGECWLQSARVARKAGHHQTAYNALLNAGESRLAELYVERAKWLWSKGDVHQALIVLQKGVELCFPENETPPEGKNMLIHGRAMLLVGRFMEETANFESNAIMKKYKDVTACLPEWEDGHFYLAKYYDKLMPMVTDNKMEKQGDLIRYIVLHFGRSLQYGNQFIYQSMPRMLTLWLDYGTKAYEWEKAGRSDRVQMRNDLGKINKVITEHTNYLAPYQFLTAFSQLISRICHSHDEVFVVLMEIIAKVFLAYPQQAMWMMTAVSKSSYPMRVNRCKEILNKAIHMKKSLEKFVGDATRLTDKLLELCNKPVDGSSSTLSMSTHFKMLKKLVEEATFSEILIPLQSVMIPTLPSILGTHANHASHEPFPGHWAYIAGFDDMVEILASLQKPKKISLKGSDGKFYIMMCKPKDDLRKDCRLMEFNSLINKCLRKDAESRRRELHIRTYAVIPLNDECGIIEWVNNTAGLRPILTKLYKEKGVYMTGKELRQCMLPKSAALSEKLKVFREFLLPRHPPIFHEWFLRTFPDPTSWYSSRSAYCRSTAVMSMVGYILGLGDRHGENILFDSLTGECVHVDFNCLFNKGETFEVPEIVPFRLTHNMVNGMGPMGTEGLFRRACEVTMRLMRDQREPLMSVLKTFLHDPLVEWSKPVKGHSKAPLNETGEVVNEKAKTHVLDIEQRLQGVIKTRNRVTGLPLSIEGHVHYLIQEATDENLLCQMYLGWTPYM

| Ki [1] [nM] | SMILES | Synergy with Cisplatin [2] |
| --- | --- | --- |
| 10 to 1000 | Nc1nn2ccc(C(F)(F)F)nc2c1C(=O)Nc1cnccc1O[C@H]1CCOC1 [I-O-10, (S)-2-amino-N-(4-((tetrahydrofuran-3-yl)oxy)pyridin-3-yl)-5-(trifluoromethyl)pyrazolo[1,5-a]pyrimidine-3-carboxamide] | +++ (Compounds with a Cisplatin sensitization value of <0.02 μM are marked with “+++.”) |
| 10 to 1000 | COc1ccncc1NC(=O)c1c(N)nn2ccc(N3CCNC(C)C3)nc12 (stereo not shown) [I-O-77, 2-amino-N-(4-methoxypyridin-3-yl)-5-(3-methylpiperazin-1-yl)pyrazolo[1,5-a]pyrimidine-3-carboxamide] | ++ (Compounds with a Cisplatin sensitization value>0.02 μM but <0.2 μM are marked with “++.”) |
| 10 to 1000 | Nc1nn2ccc(C(F)(F)F)nc2c1C(=O)Nc1cnccc1O[C@H]1CCNC1 [I-O-21, (S)-2-amino-N-(4-(pyrrolidin-3-yloxy)pyridin-3-yl)-5-(trifluoromethyl)pyrazolo[1,5-a]pyrimidine-3-carboxamide] | ++ (Compounds with a Cisplatin sensitization value>0.02 μM but <0.2 μM are marked with “++.”) |
| 1000 to 5000 | CC(C)Oc1ccncc1NC(=O)c1c(N)nn2ccc(N3CCN(C)CC3)nc12 [I-O-79, 2-amino-N-(4-isopropoxypyridin-3-yl)-5-(4-methylpiperazin-1-yl)pyrazolo[1,5-a]pyrimidine-3-carboxamide] | + (Compounds with a Cisplatin sensitization value >0.2 μM but <5 μM are marked with “+.”) |
| 10 to 1000 | COc1ccncc1NC(=O)c1c(N)nn2ccc(N3CCNCC3)nc12 [I-O-76, 2-amino-N-(4-methoxypyridin-3-yl)-5-(piperazin-1-yl)pyrazolo[1,5-a]pyrimidine-3-carboxamide] | ++ (Compounds with a Cisplatin sensitization value>0.02 μM but <0.2 μM are marked with “++.”) |
| 10 to 1000 | COc1ccncc1NC(=O)c1c(N)nn2ccc(OC3COC3)nc12 [I-O-56, 2-amino-N-(4-methoxypyridin-3-yl)-5-(oxetan-3-yloxy)pyrazolo[1,5-a]pyrimidine-3-carboxamide] | +++ (Compounds with a Cisplatin sensitization value of <0.02 μM are marked with “+++.”) |
| < 10 | Nc1nn2ccc(C(F)(F)F)nc2c1C(=O)Nc1cnccc1OCC(F)(F)F [I-O-3, 2-amino-N-(4-(2,2,2-trifluoroethoxy)pyridin-3-yl)-5-(trifluoromethyl)pyrazolo[1,5-a]pyrimidine-3-carboxamide] | +++ (Compounds with a Cisplatin sensitization value of <0.02 μM are marked with “+++.”) |
| 10 to 1000 | Nc1nn2ccc(C(F)(F)F)nc2c1C(=O)Nc1cnccc1OC1CCCOC1 (stereo not shown) [I-O-12, 2-amino-N-(4-((tetrahydro-2H-pyran-3-yl)oxy)pyridin-3-yl)-5-(trifluoromethyl)pyrazolo[1,5-a]pyrimidine-3-carboxamide] | +++ (Compounds with a Cisplatin sensitization value of <0.02 μM are marked with “+++.”) |
| 10 to 1000 | CCCNc1ccn2nc(N)c(C(=O)Nc3cnccc3OC)c2n1 [I-O-67, 2-amino-N-(4-methoxypyridin-3-yl)-5-(propylamino)pyrazolo[1,5-a]pyrimidine-3-carboxamide] | ++ (Compounds with a Cisplatin sensitization value>0.02 μM but <0.2 μM are marked with “++.”) |
| 10 to 1000 | COCCOc1ccncc1NC(=O)c1c(N)nn2ccc(C(F)(F)F)nc12 [I-O-8, 2-amino-N-(4-(2-methoxyethoxy)pyridin-3-yl)-5-(trifluoromethyl)pyrazolo[1,5-a]pyrimidine-3-carboxamide] | +++ (Compounds with a Cisplatin sensitization value of <0.02 μM are marked with “+++.”) |
| 10 to 1000 | Nc1nn2ccc(C(F)(F)F)nc2c1C(=O)Nc1cnccc1OC1CC2(CCN2)C1 (stereo not shown) [I-O-22, N-(4-((4s,6r)-1-azaspiro[3.3]heptan-6-yloxy)pyridin-3-yl)-2-amino-5-(trifluoromethyl)pyrazolo[1,5-a]pyrimidine-3-carboxamide] | ++ (Compounds with a Cisplatin sensitization value>0.02 μM but <0.2 μM are marked with “++.”) |
| 10 to 1000 | Nc1nn2ccc(C(F)(F)F)nc2c1C(=O)Nc1cnccc1OC1CC2(CNC2)C1 [I-O-32, N-(4-(2-azaspiro[3.3]heptan-6-yloxy)pyridin-3-yl)-2-amino-5-(trifluoromethyl)pyrazolo[1,5-a]pyrimidine-3-carboxamide] | ++ (Compounds with a Cisplatin sensitization value>0.02 μM but <0.2 μM are marked with “++.”) |
| 10 to 1000 | CN1CCN(c2ccncc2NC(=O)c2c(N)nn3ccc(C(F)(F)F)nc23)CC1 [I-N-1, 2-amino-N-(4-(4-methylpiperazin-1-yl)pyridin-3-yl)-5-(trifluoromethyl)pyrazolo[1,5-a]pyrimidine-3-carboxamide] | + (Compounds with a Cisplatin sensitization value >0.2 μM but <5 μM are marked with “+.”) |
| 10 to 1000 | Cc1ccncc1NC(=O)c1c(N)nn2ccc(C(F)(F)F)nc12 [I-C-1, 2-amino-N-(4-methylpyridin-3-yl)-5-(trifluoromethyl)pyrazolo[1,5-a]pyrimidine-3-carboxamide] | ++ (Compounds with a Cisplatin sensitization value>0.02 μM but <0.2 μM are marked with “++.”) |
| 10 to 1000 | CN(C)CCOc1ccncc1NC(=O)c1c(N)nn2ccc(C(F)(F)F)nc12 [I-O-17, 2-amino-N-(4-(2-(dimethylamino)ethoxy)pyridin-3-yl)-5-(trifluoromethyl)pyrazolo[1,5-a]pyrimidine-3-carboxamide] | ++ (Compounds with a Cisplatin sensitization value>0.02 μM but <0.2 μM are marked with “++.”) |
| 10 to 1000 | CN(C)Cc1ccc(Oc2ccncc2NC(=O)c2c(N)nn3ccc(C(F)(F)F)nc23)cn1 [I-O-45, 2-amino-N-(4-((6-((dimethylamino)methyl)pyridin-3-yl)oxy)pyridin-3-yl)-5-(trifluoromethyl)pyrazolo[1,5-a]pyrimidine-3-carboxamide] | +++ (Compounds with a Cisplatin sensitization value of <0.02 μM are marked with “+++.”) |
| < 10 | CCOc1ccncc1NC(=O)c1c(N)nn2ccc(C(F)(F)F)nc12 [I-O-2, 2-amino-N-(4-ethoxypyridin-3-yl)-5-(trifluoromethyl)pyrazolo[1,5-a]pyrimidine-3-carboxamide] | +++ (Compounds with a Cisplatin sensitization value of <0.02 μM are marked with “+++.”) |
| 10 to 1000 | COc1c(Cl)cncc1NC(=O)c1c(N)nn2ccc(C(F)(F)F)nc12 [I-O-48, 2-amino-N-(5-chloro-4-methoxypyridin-3-yl)-5-(trifluoromethyl)pyrazolo[1,5-a]pyrimidine-3-carboxamide] | ++ (Compounds with a Cisplatin sensitization value>0.02 μM but <0.2 μM are marked with “++.”) |
| 10 to 1000 | COc1ccncc1NC(=O)c1c(N)nn2ccc(OC3CCN(C)CC3)nc12 [I-O-61, 2-amino-N-(4-methoxypyridin-3-yl)-5-((1-methylpiperidin-4-yl)oxy)pyrazolo[1,5-a]pyrimidine-3-carboxamide] | ++ (Compounds with a Cisplatin sensitization value>0.02 μM but <0.2 μM are marked with “++.”) |
| 10 to 1000 | COc1cc(C)ncc1NC(=O)c1c(N)nn2ccc(C(F)(F)F)nc12 [I-O-46, 2-amino-N-(4-methoxy-6-methylpyridin-3-yl)-5-(trifluoromethyl)pyrazolo[1,5-a]pyrimidine-3-carboxamide] | ++ (Compounds with a Cisplatin sensitization value>0.02 μM but <0.2 μM are marked with “++.”) |
